Assay results reported in US12648921B2, “Capric acid and myristic acid compositions for treating conditions” (The Cleveland Clinic Foundation, priority 2016, dated 2026).

System: house dust mite (D. Pteronyssinus) extract (HDME) sensitized and challenged mice
Test: Airway hyper-reactivity and lung mechanics in house dust mite extract sensitized mice fed purified MCF diets
Type: in vivo
Conditions: mice fed purified MCF diet, 100 mg/day (4 g/kg body weight); for overall airway constriction (Rrs) induced by increasing dose of methacholine: FIG. 1, from six weeks before HDME sensitization; for ability of the lungs to stretch (Crs, lung compliance) in response to increasing dose of methacholine: FIG. 2; for stiffness of the lungs (Ers) in response to increasing dose of methacholine: FIG. 3; for amount of forcefully exhaled air (FEV) in response to increasing dose of methacholine: FIG. 4
Description: Mice were fed with standard, coconut oil or MCF supplemented diets starting six weeks before allergen sensitization. Isofluorane anesthetized mice received 100 ug house dust mite (D. Pteronyssinus) extract (HDME) (Greer Labs, NC) in […] by nasal aspiration. Five days later mice were challenged daily with 10 ug HDME for 5 days. Three days, after the last HDME exposure, airway hyper-reactivity is measured and lungs collected for analysis. The diets were 15 kcal % fat at a dose of 21 g coconut oil or purified MCF per kg diet. Based on the daily food intake of 4.75 g/day/25 g mouse, each mouse consumes 100 mg of coconut oil or MCF per day. The results of this examples are shown in FIGS. 1-4, which show the results with the mice treated with the various fatty acids, which are present mainly as triglycerides in coconut oil.

SMILES	overall airway constriction (Rrs) induced by increasing dose of methacholine	ability of the lungs to stretch (Crs, lung compliance) in response to increasing dose of methacholine	stiffness of the lungs (Ers) in response to increasing dose of methacholine	amount of forcefully exhaled air (FEV) in response to increasing dose of methacholine
CCCCCCCCCC(=O)O [C10, capric acid]	inhibited	improved	decreased	increased
CCCCCCCCCCCCCC(=O)O [C14, myristic acid]	inhibited	improved	decreased	increased
